# Columns and labels:
# [1] = commercially available fungicidal agents; cited from earlier work
# Penicillium chrysogenum = test: Fungus resistance test after painting over fungal growth (defacement rating); format: cell-based; settings: painted over fungal growth, +200 μg/mL in Valspar QuikHide paint
# Description: (§1) In this series of experiments, fungal growth was allowed to cover a painted surface (surface containing 2 coats of the unaltered paint) to a defacement rating of 3-5, forming a ‘contaminated surface’. […] The paint application was extended approximately 1-2 cm beyond the edge of the disc onto the NSA medium. Each formulation used a separate brush to avoid cross contamination. The re-painted discs were placed back into the humid environment with elevated temperature to encourage fungal growth.
# (§2) This test was used to evaluate the ability of paint films containing antifungal additives to prevent the re-emergence of fungal growth after painting over existing growth.
# (§3) Olympic® Home interior flat latex paint (PPG Industries, Pittsburgh, Pa.) and Valspar® QuikHide White flat interior paint (Valspar Corporation, Minneapolis, Minn.) were used for the experiments in this study unless specified. Stock solutions of the antifungal additives of interest were prepared in reagent grade dimethyl sulfoxide (DMSO; Alfa Aesar, Ward Hill, Mass.). Additives were spiked (by adding appropriate amounts of the antifungal stock solutions) into the liquid paint at specified concentrations. Samples of additive-spiked paint were vigorously mixed with a vortex mixer for at least one minute to insure uniform dispersion of the additive in the paint. […] Studies that used other brands of paint followed the same protocol as described for those using the Olympic® Home interior flat latex paint.
# (§4) Test surfaces were prepared in triplicate. In most cases, the tested conditions were repeated on a different date, again in triplicate. […] Two coats of paint were applied with a polyester brush to completely cover both faces of the filter paper disc, allowing at least four hours drying time between coats.
# (§5) Nutrient-Salts Agar (NSA) media was prepared according to ASTM method G21-13 in 100×15 mm sterile polystyrene petri dishes (VWR® Radnor, Pa.) with a solidified agar layer from 3 to 6 mm (⅛ to ¼ in.) in depth. The agar was allowed to solidify for at least 24 hours before being used. The painted test filter paper discs were placed in the center of the agar plates in a biosafety hood while wearing clean nitrile gloves.
# (§6) The paint coatings were evaluated against three representative fungi: Stachybotrys chartarum, Penicillium chrysogenum, and Alternaria alternata. […] Fungal isolates of Alternaria alternata and Penicillium chrysogenum were obtained from the Plant Pathology and Environmental Microbiology Department at Penn State University.
# (§7) A spore suspension of each of these fungi was prepared by pouring a 20-mL portion of autoclaved deionized water containing 0.01% Tween® 20 onto a subculture of each fungal species. Spores were counted with the use of a hemocytometer (Hausser Scientific, Horsham, Pa.) under a microscope. Spore suspensions of Stachybotrys chartarum and Penicillium chrysogenum were diluted to 1×10^6 spores/mL with autoclaved deionized water. Spore suspensions of Alternaria alternata were used “as is” in the range of 200,000 to 400,000 spores/mL.
# (§8) Painted test surfaces were inoculated with a spray bottle or with a cotton-tipped applicator. To inoculate the sample with a spray bottle, the spore suspension was sprayed twice on the painted test discs with a spray bottle that delivered approximately 0.14 g of fluid per spray. To inoculate the sample with a cotton-tipped applicator, an autoclaved cotton-tipped applicator was submerged in approximately 400 μL of the inoculum solution and applied evenly over the surface of the painted test surface twice.
# Stachybotrys chartarum = test: as above; format: cell-based; settings: painted over fungal growth
# Description: as §1, §2, §3, §4, §5, §6, §7, §8
# Alternaria alternata = test: as above; format: cell-based; settings: painted over fungal growth
# Description: as §1, §2, §3, §4, §5, §6, §7, §8
# Aspergillus fumigatus = test: 3 day MIC, broth microdilution in 25% PDB; format: cell-based; settings: for MIC: 72 h
# Experimental: (§9) Stock solutions (concentrations of between 4,000 μg/mL to 10,000 μg/mL; stored at −18° C.) of the above antifungals were prepared in dimethyl sulfoxide (DMSO). The stock solutions were further diluted into sterile 25% potato dextrose broth (PDB) so that the diluted solutions could be used for the antifungal susceptibility studies. This way, a typical microdilution study would reach a final ratio of about 0.5-2% v/v of DMSO in 25% PDB.
# (§10) Spore inocula were prepared in sterile distilled water with 0.1% Tween® 20 (a polysorbate surfactant), and a hemocytometer was used to determine the spore density. Typically, the spore inoculum was prepared fresh prior to each study, and the inoculum was appropriately diluted to a final concentration of 0.4-1×10^5 spores/mL or colony-forming unit (CFU)/mL in each study. The spore suspension can be stored in a refrigerator at 4° C. for up to one week.
# (§11) The minimal inhibitory concentrations (MICs) for individual antifungal agents were determined by following a modified broth microdilution protocol CLSI (Clinical and Laboratory Standards Institute) M38-A2 [Clinical and Laboratory Standards Institute (2008) Reference method for broth dilution antifungal susceptibility testing of filamentous fungi—2nd edition: Approved Standard M38-A2, CLSI, Wayne, Pa.] where 25% potato dextrose broth (PDB) was used as the medium. The studies were performed in flat bottom, 96-well microtiter plates (Greiner Bio-One, Frickenhausen, Germany).
# (§12) Plates sealed with clear polyester film (VWR, Radnor, Pa.) were incubated at a temperature of about 25° C. The progress of fungal growth was monitored at 48 hours and 72 hours.
# Mucor spp. = test: 3 day MIC, broth microdilution in 25% PDB; format: cell-based; settings: 72 h
# Experimental: as §9, §10, §11, §12
# Aspergillus flavus = test: 3 day MIC, broth microdilution in 25% PDB; format: cell-based; settings: 72 h
# Experimental: as §9, §10, §11, §12
# Fusarium oxysparum ST-33 = test: 3 day MIC, broth microdilution in 25% PDB; format: cell-based; settings: ST33, 72 h
# Experimental: as §9, §10, §11, §12
# [2] = system: Cladosporium cladosporioides; test: 3 day MIC, broth microdilution in 25% PDB; format: cell-based; settings: 72 h
# Experimental: as §9, §10, §11, §12
# Aureobasidium pullulans = test: 3 day MIC, broth microdilution in 25% PDB; format: cell-based; settings: 72 h
# Experimental: as §9, §10, §11, §12
# Rhizopus spp. = test: 3 day MIC, broth microdilution in 25% PDB; format: cell-based; settings: 72 h
# Experimental: as §9, §10, §11, §12
# Aspergillus niger = test: 3 day MIC, broth microdilution in 25% PDB; format: cell-based; settings: 72 h
# Experimental: as §9, §10, §11, §12
# [3] = +100 μg/mL in Olympic Home paint, 7 days
# [4] = +100 μg/mL in Olympic Home paint, 14 days
# [5] = +100 μg/mL in Olympic Home paint, 21 days
# [6] = +200 μg/mL in Olympic Home paint, 7 days
# [7] = +200 μg/mL in Olympic Home paint, 14 days
# [8] = +200 μg/mL in Olympic Home paint, 21 days
smiles,measurement,setting,value
"Oc1cc(Cl)ccc1Oc1ccc(Cl)cc1Cl [Triclosan, triclosan]",Solubility in water,[1],"12,000 mg/L"
same,Average defacement rating ± standard deviation,Penicillium chrysogenum; 7 days,0.9 ± 2.7 (9)
same,Average defacement rating ± standard deviation,Penicillium chrysogenum; 14 days,0.0 ± 0.0 (9)
same,Average defacement rating ± standard deviation,Penicillium chrysogenum; 21 days,0.0 ± 0.0 (9)
same,Average defacement rating ± standard deviation,Stachybotrys chartarum; [3],0.7 ± 1.2 (9)
same,Average defacement rating ± standard deviation,Stachybotrys chartarum; [4],0.7 ± 1.2 (9)
same,Average defacement rating ± standard deviation,Stachybotrys chartarum; [5],0.6 ± 1.0 (9)
same,Average defacement rating ± standard deviation,Alternaria alternata; [3],3.6 ± 3.5 (9)
same,Average defacement rating ± standard deviation,Alternaria alternata; [4],2.6 ± 3.7 (9)
same,Average defacement rating ± standard deviation,Alternaria alternata; [5],2.0 ± 2.9 (9)
"OB1OCc2cc(F)ccc21 [Compound B9, 5-Fluoro-1,3-dihydro-2,1-benzoxaborol-1-ol]",MIC,Aspergillus fumigatus,0.5 µg/mL
same,MIC,Mucor spp.,0.25 µg/mL
same,MIC,Aspergillus flavus,1 µg/mL
same,MIC,Fusarium oxysparum ST-33,0.25 µg/mL
same,MIC,[2],0.1 µg/mL
same,MIC,Aureobasidium pullulans,0.125 µg/mL
same,MIC,Rhizopus spp.,0.5 µg/mL
same,MIC,Aspergillus niger,0.25 µg/mL
same,Average defacement rating ± standard deviation,Penicillium chrysogenum; 7 days,8.7 ± 1.0 (9)
same,Average defacement rating ± standard deviation,Penicillium chrysogenum; 14 days,2.6 ± 3.1 (9)
same,Average defacement rating ± standard deviation,Penicillium chrysogenum; 21 days,0.0 ± 0.0 (9)
same,Average defacement rating ± standard deviation,"Stachybotrys chartarum; +10 μg/mL in Olympic Home paint, 7 days",0.3 ± 0.6 (3)
same,Average defacement rating ± standard deviation,"Stachybotrys chartarum; +10 μg/mL in Olympic Home paint, 14 days",0.0 ± 0.0 (3)
same,Average defacement rating ± standard deviation,"Stachybotrys chartarum; +10 μg/mL in Olympic Home paint, 21 days",0.0 ± 0.0 (3)
same,Average defacement rating ± standard deviation,Stachybotrys chartarum; [3],7.2 ± 2.6 (9)
same,Average defacement rating ± standard deviation,Stachybotrys chartarum; [4],1.3 ± 3.0 (9)
same,Average defacement rating ± standard deviation,Stachybotrys chartarum; [5],1.0 ± 2.8 (9)
same,Average defacement rating ± standard deviation,Alternaria alternata; [4],5.1 ± 2.1 (12)
same,Average defacement rating ± standard deviation,Alternaria alternata; [5],4.6 ± 2.2 (12)
same,Average defacement rating ± standard deviation,Alternaria alternata; [6],9.7 ± 0.6 (3)
same,Average defacement rating ± standard deviation,Alternaria alternata; [7],7.0 ± 4.4 (3)
same,Average defacement rating ± standard deviation,Alternaria alternata; [8],6.3 ± 5.5 (3)
"CCCCCCCCn1sccc1=O [OIT, 2-Octyl-4-isothiazolin-3-one]",Average defacement rating ± standard deviation,Penicillium chrysogenum; 7 days,3.6 ± 2.8 (9)
same,Average defacement rating ± standard deviation,Penicillium chrysogenum; 14 days,3.0 ± 3.7 (9)
same,Average defacement rating ± standard deviation,Penicillium chrysogenum; 21 days,2.3 ± 40.0 (9)
same,Average defacement rating ± standard deviation,Stachybotrys chartarum; [3],4.6 ± 3.2 (9)
same,Average defacement rating ± standard deviation,Stachybotrys chartarum; [4],3.6 ± 3.7 (9)
same,Average defacement rating ± standard deviation,Stachybotrys chartarum; [5],3.0 ± 3.7 (9)
same,Average defacement rating ± standard deviation,Alternaria alternata; [3],0.3 ± 0.5 (6)
same,Average defacement rating ± standard deviation,Alternaria alternata; [4],0.0 ± 0.0 (6)
same,Average defacement rating ± standard deviation,Alternaria alternata; [5],0.0 ± 0.0 (6)
"OB1OCc2cc(Cl)ccc21 [Compound B8, 5-chloro-1,3-dihydro-2,1-benzoxaborol-1-ol]",MIC,Aspergillus fumigatus,0.5 µg/mL
same,MIC,Mucor spp.,0.5 µg/mL
same,MIC,Aspergillus flavus,1 µg/mL
same,MIC,Fusarium oxysparum ST-33,0.25 µg/mL
same,MIC,[2],0.1 µg/mL
same,MIC,Aureobasidium pullulans,0.125 µg/mL
same,MIC,Rhizopus spp.,4 µg/mL
same,MIC,Aspergillus niger,0.25 µg/mL
same,Average defacement rating ± standard deviation,Penicillium chrysogenum; 7 days,2.3 ± 0.6 (9)
same,Average defacement rating ± standard deviation,Penicillium chrysogenum; 14 days,0.0 ± 0.0 (9)
same,Average defacement rating ± standard deviation,Penicillium chrysogenum; 21 days,0.0 ± 0.0 (9)
same,Average defacement rating ± standard deviation,Stachybotrys chartarum; [3],7.0 ± 1.9 (9)
same,Average defacement rating ± standard deviation,Stachybotrys chartarum; [4],6.4 ± 2.6 (9)
same,Average defacement rating ± standard deviation,Alternaria alternata; [4],3.4 ± 2.9 (9)
same,Average defacement rating ± standard deviation,Alternaria alternata; [5],3.0 ± 2.8 (9)
same,Average defacement rating ± standard deviation,Alternaria alternata; [6],9.3 ± 1.2 (3)
same,Average defacement rating ± standard deviation,Alternaria alternata; [7],7.3 ± 2.9 (3)
same,Average defacement rating ± standard deviation,Alternaria alternata; [8],3.0 ± 0.9 (3)
O=C1C2CC=CCC2C(=O)N1SC(Cl)(Cl)Cl (stereo not drawn) [Captan],MIC,Aspergillus fumigatus,12.5 µg/mL
same,MIC,Mucor spp.,3.1 µg/mL
same,MIC,Aspergillus flavus,25 µg/mL
same,MIC,Fusarium oxysparum ST-33,2 µg/mL
same,MIC,Aureobasidium pullulans,0.8 µg/mL
same,MIC,Rhizopus spp.,12.5 µg/mL
same,MIC,Aspergillus niger,16 µg/mL
same,Solubility in water,[1],3.3 mg/L
same,Average defacement rating ± standard deviation,Penicillium chrysogenum; 7 days,0.0 ± 0.0 (9)
same,Average defacement rating ± standard deviation,Penicillium chrysogenum; 14 days,0.0 ± 0.0 (9)
same,Average defacement rating ± standard deviation,Penicillium chrysogenum; 21 days,0.0 ± 0.0 (9)
same,Average defacement rating ± standard deviation,Stachybotrys chartarum; [3],0.0 ± 0.0 (6)
same,Average defacement rating ± standard deviation,Stachybotrys chartarum; [4],0.0 ± 0.0 (6)
same,Average defacement rating ± standard deviation,Stachybotrys chartarum; [5],0.0 ± 0.0 (6)
same,Average defacement rating ± standard deviation,Alternaria alternata; [3],3.6 ± 3.9 (9)
same,Average defacement rating ± standard deviation,Alternaria alternata; [4],2.5 ± 4.0 (9)
same,Average defacement rating ± standard deviation,Alternaria alternata; [5],2.4 ± 3.8 (9)
"CCCCNC(=O)OCC#CI [IPBC, 3-Iodo-2-propynylbutylcarbamate]",3 day MIC,Aspergillus fumigatus,0.4 µg/mL
same,Solubility in water,[1],156 mg/L
same,Average defacement rating ± standard deviation,Penicillium chrysogenum; 7 days,6.9 ± 3.8 (9)
same,Average defacement rating ± standard deviation,Penicillium chrysogenum; 14 days,4.8 ± 4.0 (9)
same,Average defacement rating ± standard deviation,Penicillium chrysogenum; 21 days,3.1 ± 3.4 (9)
same,Average defacement rating ± standard deviation,Stachybotrys chartarum; [3],1.2 ± 1.3 (9)
same,Average defacement rating ± standard deviation,Stachybotrys chartarum; [4],0.0 ± 0.0 (9)
same,Average defacement rating ± standard deviation,Stachybotrys chartarum; [5],0.0 ± 0.0 (9)
same,Average defacement rating ± standard deviation,Alternaria alternata; [3],5.9 ± 2.9 (9)
same,Average defacement rating ± standard deviation,Alternaria alternata; [4],3.1 ± 2.4 (9)
same,Average defacement rating ± standard deviation,Alternaria alternata; [5],3.0 ± 2.5 (9)
"N#Cc1c(Cl)c(Cl)c(Cl)c(C#N)c1Cl [Chlorothalonil, chlorothalonil]",MIC,Aspergillus fumigatus,0.2 µg/mL
same,MIC,Mucor spp.,0.8 µg/mL
same,MIC,Aspergillus flavus,0.2 µg/mL
same,MIC,Rhizopus spp.,0.8 µg/mL
same,MIC,Aspergillus niger,0.4 µg/mL
same,Solubility in water,[1],<100 mg/L
same,Average defacement rating ± standard deviation,Penicillium chrysogenum; 7 days,0.0 ± 0.0 (9)
same,Average defacement rating ± standard deviation,Penicillium chrysogenum; 14 days,0.0 ± 0.0 (9)
same,Average defacement rating ± standard deviation,Penicillium chrysogenum; 21 days,0.0 ± 0.0 (9)
same,Average defacement rating ± standard deviation,Stachybotrys chartarum; [3],2.2 ± 2.1 (9)
same,Average defacement rating ± standard deviation,Stachybotrys chartarum; [4],2.0 ± 1.7 (9)
same,Average defacement rating ± standard deviation,Stachybotrys chartarum; [5],2.0 ± 1.7 (9)
same,Average defacement rating ± standard deviation,"Alternaria alternata; +1000 μg/mL in Olympic Home paint, 7 days",0.5 ± 1.4 (9)
same,Average defacement rating ± standard deviation,"Alternaria alternata; +1000 μg/mL in Olympic Home paint, 14 days",0.2 ± 0.5 (9)
same,Average defacement rating ± standard deviation,"Alternaria alternata; +1000 μg/mL in Olympic Home paint, 21 days",0.1 ± 0.3 (9)
